According to US20230085307A1, “PYRIDAZINONE COMPOUND AND HERBICIDE” (NISSAN CHEMICAL CORPORATION, priority 2019, published 2023):

Legend:
[1] = system: green foxtail; assay: Test Example 5: herbicidal effect by foliage application, plastic box (Table 20, symbol G); format: in vivo, green foxtail (Setaria viridis); details: foliage application
Procedure, shortened: (§1)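 Post-emergence foliar test in sterilized diluvial soil. Compound applied as water-diluted emulsion at a predetermined rate to 14-day-old plants; evaluation at three weeks.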

[2] = system: false cleavers; assay: Test Example 5: herbicidal effect by foliage application, plastic box (Table 20, symbol Q); format: in vivo, false cleavers (Galium spurium); details: foliage application
Procedure, shortened: as §1

[3] = system: Italian ryegrass; assay: Test Example 5: herbicidal effect by foliage application, plastic box (Table 20, symbol K); format: in vivo, Italian ryegrass (Lolium multiflorum); details: foliage application
Procedure, shortened: as §1

[4] = system: barnyard grass; assay: Test Example 3: herbicidal effect by foliage application, Wagner pot (Table 18, symbol H); format: in vivo, barnyard grass (Echinochloa crus-galli); details: amount of applied herbicide 320 g/ha
Procedure, shortened: (§2)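 Plants were sown in alluvial soil held under 0.1–0.5 cm standing water and grown 14 days in a greenhouse at 25–30 °C. An emulsifiable formulation, water-diluted to the set dose, was then sprayed onto the foliage, and effects were scored three weeks later using previously defined criteria.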

[5] = system: blackgrass; assay: Test Example 4: herbicidal effect by soil treatment (Table 19, symbol J); format: in vivo, blackgrass (Alopecurus myosuroides); details: amount of applied herbicide 320 g/ha
Procedure, shortened: (§3)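 Scoring uses the grading scale of an earlier test, three weeks post-application. Treatment consists of spraying a diluted emulsion formulation across the surface of sterilized diluvial soil in which seeds are buried near 1.5 cm deep; boxes are kept in a greenhouse between 25° C. and 30° C.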

[6] = system: barnyard grass; assay: Test Example 5: herbicidal effect by foliage application, plastic box (Table 20, symbol H); format: in vivo, barnyard grass (Echinochloa crus-galli); details: foliage application
Procedure, shortened: as §1

[7] = system: barnyard grass; assay: Test Example 4: herbicidal effect by soil treatment (Table 19, symbol H); format: in vivo, barnyard grass (Echinochloa crus-galli); details: amount of applied herbicide 320 g/ha
Procedure, shortened: as §3

[8] = system: blackgrass; assay: Test Example 5: herbicidal effect by foliage application, plastic box (Table 20, symbol J); format: in vivo, blackgrass (Alopecurus myosuroides); details: foliage application
Procedure, shortened: as §1

[9] = system: redroot pigweed; assay: Test Example 5: herbicidal effect by foliage application, plastic box (Table 20, symbol N); format: in vivo, redroot pigweed (Amaranthus retroflexus); details: foliage application
Procedure, shortened: as §1

[10] = system: lambsquarters; assay: Test Example 5: herbicidal effect by foliage application, plastic box (Table 20, symbol O); format: in vivo, lambsquarters (Chenopodium album); details: foliage application
Procedure, shortened: as §1

[11] = system: wild oat; assay: Test Example 5: herbicidal effect by foliage application, plastic box (Table 20, symbol I); format: in vivo, wild oat (Avena fatua); details: foliage application
Procedure, shortened: as §1

[12] = system: wild oat; assay: Test Example 4: herbicidal effect by soil treatment (Table 19, symbol I); format: in vivo, wild oat (Avena fatua); details: amount of applied herbicide 320 g/ha
Procedure, shortened: as §3

[13] = system: rice flat sedge; assay: Test Example 3: herbicidal effect by foliage application, Wagner pot (Table 18, symbol E); format: in vivo, rice flat sedge (Cyperus iria); details: amount of applied herbicide 320 g/ha
Procedure, shortened: as §2

[14] = system: persian speedwell; assay: Test Example 5: herbicidal effect by foliage application, plastic box (Table 20, symbol R); format: in vivo, Persian speedwell (Veronica persica); details: foliage application
Procedure, shortened: as §1

[15] = system: velvetleaf; assay: Test Example 4: herbicidal effect by soil treatment (Table 19, symbol M); format: in vivo, velvetleaf (Abutilon theophrasti); details: amount of applied herbicide 320 g/ha
Procedure, shortened: as §3

[16] = system: persian speedwell; assay: Test Example 4: herbicidal effect by soil treatment (Table 19, symbol R); format: in vivo, Persian speedwell (Veronica persica); details: amount of applied herbicide 320 g/ha
Procedure, shortened: as §3

[17] = system: Japanese bulrush; assay: Test Example 1: herbicidal activity, application before weed generation under submerged conditions (Table 16, symbol B); format: in vivo, Japanese bulrush (Schoenoplectus juncoides)
Procedure, shortened: (§4)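 Alluvial soil was flooded to 4 cm depth, weed seeds were sown mixed and 2.5-leaf rice seedlings were transplanted. On sowing day, the compound's emulsion, diluted in water to a set dose, was applied to the water surface. Plants grew at 25–30 °C and were scored 0–5 after three weeks.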

[18] = system: chickweed; assay: Test Example 5: herbicidal effect by foliage application, plastic box (Table 20, symbol P); format: in vivo, common chickweed (Stellaria media); details: foliage application
Procedure, shortened: as §1

[19] = system: windgrass; assay: Test Example 4: herbicidal effect by soil treatment (Table 19, symbol L); format: in vivo, windgrass (Apera spica-venti); details: amount of applied herbicide 320 g/ha
Procedure, shortened: as §3

[20] = system: southern crabgrass; assay: Test Example 4: herbicidal effect by soil treatment (Table 19, symbol F); format: in vivo, southern crabgrass (Digitaria ciliaris); details: amount of applied herbicide 320 g/ha
Procedure, shortened: as §3

[21] = system: Italian ryegrass; assay: Test Example 4: herbicidal effect by soil treatment (Table 19, symbol K); format: in vivo, Italian ryegrass (Lolium multiflorum); details: amount of applied herbicide 320 g/ha
Procedure, shortened: as §3

[22] = system: windgrass; assay: Test Example 5: herbicidal effect by foliage application, plastic box (Table 20, symbol L); format: in vivo, windgrass (Apera spica-venti); details: foliage application
Procedure, shortened: as §1

[23] = system: velvetleaf; assay: Test Example 5: herbicidal effect by foliage application, plastic box (Table 20, symbol M); format: in vivo, velvetleaf (Abutilon theophrasti); details: foliage application
Procedure, shortened: as §1

[24] = system: redroot pigweed; assay: Test Example 4: herbicidal effect by soil treatment (Table 19, symbol N); format: in vivo, redroot pigweed (Amaranthus retroflexus); details: amount of applied herbicide 320 g/ha
Procedure, shortened: as §3

[25] = system: lambsquarters; assay: Test Example 4: herbicidal effect by soil treatment (Table 19, symbol O); format: in vivo, lambsquarters (Chenopodium album); details: amount of applied herbicide 320 g/ha
Procedure, shortened: as §3

[26] = system: green foxtail; assay: Test Example 4: herbicidal effect by soil treatment (Table 19, symbol G); format: in vivo, green foxtail (Setaria viridis); details: amount of applied herbicide 320 g/ha
Procedure, shortened: as §3

[27] = system: Chinese sprangletop; assay: Test Example 3: herbicidal effect by foliage application, Wagner pot (Table 18, symbol D); format: in vivo, chinese sprangletop (Leptochloa chinensis); details: amount of applied herbicide 320 g/ha
Procedure, shortened: as §2

[28] = system: late watergrass; assay: Test Example 1: herbicidal activity, application before weed generation under submerged conditions (Table 16, symbol A); format: in vivo, late watergrass (Echinochloa oryzicola)
Procedure, shortened: as §4

[29] = system: southern crabgrass; assay: Test Example 5: herbicidal effect by foliage application, plastic box (Table 20, symbol F); format: in vivo, southern crabgrass (Digitaria ciliaris); details: foliage application
Procedure, shortened: as §1

[30] = system: chickweed; assay: Test Example 4: herbicidal effect by soil treatment (Table 19, symbol P); format: in vivo, common chickweed (Stellaria media); details: amount of applied herbicide 320 g/ha
Procedure, shortened: as §3

[31] = system: oval-leafed pondweed; assay: Test Example 1: herbicidal activity, application before weed generation under submerged conditions (Table 16, symbol C); format: in vivo, oval-leafed pondweed (Monochoria vaginalis)
Procedure, shortened: as §4

[32] = AAH 320 g/ha, evaluated three weeks after application
[33] = 320 g/ha, three weeks after application
[34] = amount of applied herbicide 320 g/ha

Cc1ccc(S(=O)(=O)Oc2c(C)nn(C)c(=O)c2-c2c(-c3ccc(OC(F)F)cc3)sc3ccc(F)cc23)cc1 [2-312]
G: green foxtail, herbicidal effect (criteria 0-5) [1, 32]: 4 (Herbicidal rate of 70% or more and less than 90%)
Q: false cleavers, herbicidal effect (criteria 0-5) [2, 32]: 5 (Herbicidal rate of 90% or more (almost completely withered))
K: Italian ryegrass, herbicidal effect (criteria 0-5) [3, 32]: 5 (Herbicidal rate of 90% or more (almost completely withered))
herbicidal effect on H: barnyard grass [4]: 5 (Herbicidal rate of 90% or more (almost completely withered))
herbicidal effect on J: blackgrass [5]: 3 (Herbicidal rate of 40% or more and less than 70%)
H: barnyard grass, herbicidal effect (criteria 0-5) [6, 32]: 5 (Herbicidal rate of 90% or more (almost completely withered))
herbicidal effect on H: barnyard grass [7]: 1 (Herbicidal rate of 5% or more and less than 20%)
J: blackgrass, herbicidal effect (criteria 0-5) [8, 32]: 4 (Herbicidal rate of 70% or more and less than 90%)
N: redroot pigweed, herbicidal effect (criteria 0-5) [9, 32]: 5 (Herbicidal rate of 90% or more (almost completely withered))
O: lambsquarters, herbicidal effect (criteria 0-5) [10, 32]: 5 (Herbicidal rate of 90% or more (almost completely withered))
I: wild oat, herbicidal effect (criteria 0-5) [11, 32]: 3 (Herbicidal rate of 40% or more and less than 70%)
herbicidal effect on I: wild oat [12]: 0 (Herbicidal rate of 5% or less (almost no effect))
herbicidal effect on E: rice flat sedge [13]: 5 (Herbicidal rate of 90% or more (almost completely withered))
R: persian speedwell, herbicidal effect (criteria 0-5) [14, 32]: 5 (Herbicidal rate of 90% or more (almost completely withered))
herbicidal effect on M: velvetleaf [15]: 3 (Herbicidal rate of 40% or more and less than 70%)
herbicidal effect on R: persian speedwell [16]: 5 (Herbicidal rate of 90% or more (almost completely withered))
Herbicidal effect on B: Japanese bulrush (grade 0-5) ([17]; 320 g/ha applied herbicide): 3 (Herbicidal rate of 40% or more and less than 70%)
P: chickweed, herbicidal effect (criteria 0-5) [18, 32]: 5 (Herbicidal rate of 90% or more (almost completely withered))
herbicidal effect on L: windgrass [19]: 0 (Herbicidal rate of 5% or less (almost no effect))
herbicidal effect on F: southern crabgrass [20]: 0 (Herbicidal rate of 5% or less (almost no effect))
herbicidal effect on K: Italian ryegrass [21]: 5 (Herbicidal rate of 90% or more (almost completely withered))
L: windgrass, herbicidal effect (criteria 0-5) [22, 32]: 4 (Herbicidal rate of 70% or more and less than 90%)
M: velvetleaf, herbicidal effect (criteria 0-5) [23, 32]: 5 (Herbicidal rate of 90% or more (almost completely withered))
herbicidal effect on N: redroot pigweed [24]: 5 (Herbicidal rate of 90% or more (almost completely withered))
herbicidal effect on O: lambsquarters [25]: 4 (Herbicidal rate of 70% or more and less than 90%)
herbicidal effect on G: green foxtail [26]: 0 (Herbicidal rate of 5% or less (almost no effect))
herbicidal effect on D: Chinese sprangletop [27]: 3 (Herbicidal rate of 40% or more and less than 70%)
Herbicidal effect on A: late watergrass (grade 0-5) ([28]; 320 g/ha applied herbicide): 2 (Herbicidal rate of 20% or more and less than 40%)
F: southern crabgrass, herbicidal effect (criteria 0-5) [29, 32]: 1 (Herbicidal rate of 5% or more and less than 20%)
herbicidal effect on P: chickweed [30]: 5 (Herbicidal rate of 90% or more (almost completely withered))
Herbicidal effect on C: oval-leafed pondweed (grade 0-5) ([31]; 320 g/ha applied herbicide): 0 (Herbicidal rate of 5% or less (almost no effect))

Cc1nn(Cc2ccccc2)c(=O)c(-c2c(-c3ccc(F)cc3)sc3ccc(F)cc23)c1O [2-432]
G: green foxtail, herbicidal effect grade [1, 33]: 0 (Herbicidal rate of 5% or less (almost no effect))
Q: false cleavers, herbicidal effect grade [2, 33]: 3 (Herbicidal rate of 40% or more and less than 70%)
K: Italian ryegrass, herbicidal effect grade [3, 33]: 0 (Herbicidal rate of 5% or less (almost no effect))
herbicidal effect on H: barnyard grass [4]: 3 (Herbicidal rate of 40% or more and less than 70%)
herbicidal effect, J: blackgrass [5]: 0 (Herbicidal rate of 5% or less (almost no effect))
H: barnyard grass, herbicidal effect grade [6, 33]: 1 (Herbicidal rate of 5% or more and less than 20%)
herbicidal effect, H: barnyard grass [7]: 0 (Herbicidal rate of 5% or less (almost no effect))
J: blackgrass, herbicidal effect grade [8, 33]: 0 (Herbicidal rate of 5% or less (almost no effect))
N: redroot pigweed, herbicidal effect grade [9, 33]: 5 (Herbicidal rate of 90% or more (almost completely withered))
O: lambsquarters, herbicidal effect grade [10, 33]: 2 (Herbicidal rate of 20% or more and less than 40%)
I: wild oat, herbicidal effect grade [11, 33]: 0 (Herbicidal rate of 5% or less (almost no effect))
herbicidal effect, I: wild oat [12]: 0 (Herbicidal rate of 5% or less (almost no effect))
herbicidal effect on E: rice flat sedge [13]: 2 (Herbicidal rate of 20% or more and less than 40%)
R: persian speedwell, herbicidal effect grade [14, 33]: 5 (Herbicidal rate of 90% or more (almost completely withered))
herbicidal effect, M: velvetleaf [15]: 0 (Herbicidal rate of 5% or less (almost no effect))
herbicidal effect, R: persian speedwell [16]: 0 (Herbicidal rate of 5% or less (almost no effect))
Herbicidal effect, B: Japanese bulrush [17, 34]: 0 (Herbicidal rate of 5% or less (almost no effect))
P: chickweed, herbicidal effect grade [18, 33]: 5 (Herbicidal rate of 90% or more (almost completely withered))
herbicidal effect, L: windgrass [19]: 0 (Herbicidal rate of 5% or less (almost no effect))
herbicidal effect, F: southern crabgrass [20]: 0 (Herbicidal rate of 5% or less (almost no effect))
herbicidal effect, K: Italian ryegrass [21]: 0 (Herbicidal rate of 5% or less (almost no effect))
L: windgrass, herbicidal effect grade [22, 33]: 0 (Herbicidal rate of 5% or less (almost no effect))
M: velvetleaf, herbicidal effect grade [23, 33]: 1 (Herbicidal rate of 5% or more and less than 20%)
herbicidal effect, N: redroot pigweed [24]: 3 (Herbicidal rate of 40% or more and less than 70%)
herbicidal effect, O: lambsquarters [25]: 2 (Herbicidal rate of 20% or more and less than 40%)
herbicidal effect, G: green foxtail [26]: 1 (Herbicidal rate of 5% or more and less than 20%)
herbicidal effect on D: Chinese sprangletop [27]: 0 (Herbicidal rate of 5% or less (almost no effect))
Herbicidal effect, A: late watergrass [28, 34]: 2 (Herbicidal rate of 20% or more and less than 40%)
F: southern crabgrass, herbicidal effect grade [29, 33]: 3 (Herbicidal rate of 40% or more and less than 70%)
herbicidal effect, P: chickweed [30]: 0 (Herbicidal rate of 5% or less (almost no effect))
Herbicidal effect, C: oval-leafed pondweed [31, 34]: 0 (Herbicidal rate of 5% or less (almost no effect))
